Experimental data from PMC10940605, “Design, synthesis and in vitro anticancer activity of some new lomefloxacin derivatives” (Scientific Reports, 2024).

How the values were obtained:
[1] = tested on: 60 human cancer cell lines; test: NCI-60 SRB screen, whole panel; assay type: cell-based; conditions: Homo sapiens, 48 h; One Dose Mean Graph, Conc 1.00E-5 Molar; read-out: Mean Growth Percent
[2] = tested on: NCI-H23; test: NCI-60 SRB screen; assay type: cell-based; conditions: Homo sapiens; NCI-H23, 10^–5 Molar; read-out: Percent growth inhibition
Description: (§1) All newly synthesized compounds were selected and screened for anticancer activity against 60 human cancer cell lines representing 9 types of tumors including leukemia, melanoma, lung, colon, CNS, ovarian, renal, prostate, and breast cancers at the National Cancer Institute (NCI), Bethesda, USA. Screening was performed utilizing a single dose (10^−5 M concentration) and cells were incubated for 48 h. The end point was determined using sulforhodamine B (SRB) dye.
(§2) In this study, all the 16 newly synthesized compounds were submitted to the National Cancer Institute (USA) for anticancer evaluation and were selected and evaluated using 60 different human tumor cell lines representing lung, colon, CNS, ovarian, renal, prostate, breast cancers as well as leukemia and melanoma. A single dose (10^–5 Molar) was used for the initial screening for evaluation of anticancer activity. The 60 human cancer cell lines were provided by the national cancer institute biomedical research campus in Frederick, Maryland.
(§3) 60 different human cancer cell lines were utilized to screen the newly synthesized compounds for anticancer activity according to the previously reported standard procedure[24]–[26] as follows: • 96 well microtiter plates were used to inoculate the cells at […] ranging from 4000–5000 cells/well depending on the replication time of individual cell lines. Roswell Park Memorial Institute culture medium (RPMI 1640 medium) containing 2 mM L-glutamine and fetal bovine serum was used to grow the cells at 37 °C, 5% CO2, 95% air and 100% relative humidity for 24 h. • Fixation of cells in two plates of each cell line in situ was done using trichloroacetic acid (TCA). This represented the measurement of cell population at the time of drug addition (Tz). • Dimethyl sulfoxide (DMSO) was used to dissolve the synthesized compounds at 400-fold the desired final maximum concentration and frozen prior to use. This frozen concentrate was melted and diluted to twice the final concentration with complete medium containing 50 µg/mL gentamycin at time of drug addition. • The final compound concentration was obtained by adding 100 µL of the synthesized compounds to the appropriate microtiter wells already containing 100 µL followed by incubation of the plates at 37 °C, 5% CO2, 95% air and 100% relative humidity for 48 h. • Fixation of the cells was achieved by gentle addition of 50 µL of cold 50% (w/v) TCA followed by incubation for 60 min at 4 °C. The supernatant was then discarded and the plates are washed 5 times with tap water and air dried. • Sulphorhodamine B (SRB) solution (100 µL) at 0.4% (w/v) in 1% acetic acid was added to each plate followed by incubation for 10 min at room temperature. The unbound dye was then removed by washing five times with 1% acetic acid and plates were air dried. • Dissolution of the bound stain was done using […] trizma base and the absorbance was read at […] wavelength using an automated plate reader. • The percentage growth inhibition was calculated as follows: Ti-Tz/C-Tz×100forconcentrationswhichTi≥Tz Ti-Tz/Tz×100forconcentrationswhichTi<Tz • Time zero (Tz) • Control growth (C) • Test growth in the presence of drug (Ti)

[3] = tested on: MDA-MB-435; test: NCI-60 SRB screen; assay type: cell-based; conditions: Homo sapiens; MDA-MB-435, 10^–5 Molar; read-out: Percent growth inhibition
Description: as §1, §2, §3

[4] = tested on: OVCAR-4; test: NCI-60 SRB screen; assay type: cell-based; conditions: Homo sapiens; OVCAR-4, 10^–5 Molar; read-out: Percent growth inhibition
Description: as §1, §2, §3

[5] = tested on: PC-3; test: NCI-60 SRB screen; assay type: cell-based; conditions: Homo sapiens; PC-3, 10^–5 Molar; read-out: Percent growth inhibition
Description: as §1, §2, §3

[6] = tested on: LOX IMVI; test: NCI-60 SRB screen; assay type: cell-based; conditions: Homo sapiens, 10^–5 Molar, read-out: Percent growth inhibition
Description: as §1, §2, §3

[7] = tested on: MDA-MB-468; test: NCI-60 SRB screen; assay type: cell-based; conditions: Homo sapiens; MDA-MB-468, 10^–5 Molar; read-out: Percent growth inhibition
Description: as §1, §2, §3

[8] = tested on: UACC-62; test: NCI-60 SRB screen; assay type: cell-based; conditions: Homo sapiens; UACC-62, 10^–5 Molar; read-out: Percent growth inhibition
Description: as §1, §2, §3

[9] = tested on: SNB-75; test: NCI-60 SRB screen; assay type: cell-based; conditions: Homo sapiens; SNB-75, 10^–5 Molar; read-out: Percent growth inhibition
Description: as §1, §2, §3

[10] = tested on: HS 578T; test: NCI-60 SRB screen; assay type: cell-based; conditions: Homo sapiens, 10^–5 Molar, read-out: Percent growth inhibition
Description: as §1, §2, §3

[11] = tested on: NCI-H322M; test: NCI-60 SRB screen; assay type: cell-based; conditions: Homo sapiens, 10^–5 Molar, read-out: Percent growth inhibition
Description: as §1, §2, §3

[12] = tested on: CAKI-1; test: NCI-60 SRB screen; assay type: cell-based; conditions: Homo sapiens; CAKI-1, 10^–5 Molar; read-out: Percent growth inhibition
Description: as §1, §2, §3

[13] = tested on: NCI-H522; test: NCI-60 SRB screen; assay type: cell-based; conditions: Homo sapiens; NCI-H522, 10^–5 Molar; read-out: Percent growth inhibition
Description: as §1, §2, §3

[14] = tested on: SF-268; test: NCI-60 SRB screen; assay type: cell-based; conditions: Homo sapiens; SF-268, 10^–5 Molar; read-out: Percent growth inhibition
Description: as §1, §2, §3

[15] = tested on: SK-MEL-28; test: NCI-60 SRB screen; assay type: cell-based; conditions: Homo sapiens; SK-MEL-28, 10^–5 Molar; read-out: Percent growth inhibition
Description: as §1, §2, §3

[16] = tested on: M14; test: NCI-60 SRB screen; assay type: cell-based; conditions: Homo sapiens; M14, 10^–5 Molar; read-out: Percent growth inhibition
Description: as §1, §2, §3

[17] = tested on: SF-539; test: NCI-60 SRB screen; assay type: cell-based; conditions: Homo sapiens; SF-539, 10^–5 Molar; read-out: Percent growth inhibition
Description: as §1, §2, §3

[18] = tested on: U251; test: NCI-60 SRB screen; assay type: cell-based; conditions: Homo sapiens, U-251; U251, 10^–5 Molar; read-out: Percent growth inhibition
Description: as §1, §2, §3

[19] = tested on: A498; test: NCI-60 SRB screen; assay type: cell-based; conditions: Homo sapiens; A498, 10^–5 Molar; read-out: Percent growth inhibition
Description: as §1, §2, §3

[20] = tested on: 786-0; test: NCI-60 SRB screen; assay type: cell-based; conditions: Homo sapiens; 786-0, 10^–5 Molar; read-out: Percent growth inhibition
Description: as §1, §2, §3

[21] = tested on: UO-31; test: NCI-60 SRB screen; assay type: cell-based; conditions: Homo sapiens; UO-31, 10^–5 Molar; read-out: Percent growth inhibition
Description: as §1, §2, §3

[22] = tested on: SF-295; test: NCI-60 SRB screen; assay type: cell-based; conditions: Homo sapiens; SF-295, 10^–5 Molar; read-out: Percent growth inhibition
Description: as §1, §2, §3

[23] = tested on: OVCAR-5; test: NCI-60 SRB screen; assay type: cell-based; conditions: Homo sapiens; OVCAR-5, 10^–5 Molar; read-out: Percent growth inhibition
Description: as §1, §2, §3

[24] = tested on: K-562; test: NCI-60 SRB screen; assay type: cell-based; conditions: Homo sapiens, K562; K-562, 10^–5 Molar; read-out: Percent growth inhibition
Description: as §1, §2, §3

[25] = tested on: MCF7; test: NCI-60 SRB screen; assay type: cell-based; conditions: Homo sapiens; MCF7, 10^–5 Molar; read-out: Percent growth inhibition
Description: as §1, §2, §3

[26] = tested on: ACHN; test: NCI-60 SRB screen; assay type: cell-based; conditions: Homo sapiens, 10^–5 Molar, read-out: Percent growth inhibition
Description: as §1, §2, §3

[27] = tested on: BT-549; test: NCI-60 SRB screen; assay type: cell-based; conditions: Homo sapiens; BT-549, 10^–5 Molar; read-out: Percent growth inhibition
Description: as §1, §2, §3

[28] = tested on: OVCAR-8; test: NCI-60 SRB screen; assay type: cell-based; conditions: Homo sapiens; OVCAR-8, 10^–5 Molar; read-out: Percent growth inhibition
Description: as §1, §2, §3

[29] = tested on: MDA-MB-231/ATCC; test: NCI-60 SRB screen; assay type: cell-based; conditions: Homo sapiens, 10^–5 Molar, read-out: Percent growth inhibition
Description: as §1, §2, §3

[30] = tested on: MALME-3M; test: NCI-60 SRB screen; assay type: cell-based; conditions: Homo sapiens, 10^–5 Molar, read-out: Percent growth inhibition
Description: as §1, §2, §3

[31] = tested on: leukemia SR; test: NCI-60 SRB screen; assay type: cell-based; conditions: Homo sapiens; SR, 10^–5 Molar; read-out: Percent growth inhibition
Description: as §1, §2, §3

[32] = tested on: NCI-H226; test: NCI-60 SRB screen; assay type: cell-based; conditions: Homo sapiens; NCI-H226, 10^–5 Molar; read-out: Percent growth inhibition
Description: as §1, §2, §3

[33] = tested on: SW-620; test: NCI-60 SRB screen; assay type: cell-based; conditions: Homo sapiens; SW-620, 10^–5 Molar; read-out: Percent growth inhibition
Description: as §1, §2, §3

Row | SMILES | melting point [°C] | activity at 10 µM [1] [%] | inhibition at 10 µM [6] [%] | inhibition at 10 µM [7] [%] | inhibition at 10 µM [8] [%] | inhibition at 10 µM [9] [%] | inhibition at 10 µM [11] [%] | inhibition at 10 µM [12] [%] | inhibition at 10 µM [14] [%] | inhibition at 10 µM [20] [%] | inhibition at 10 µM [21] [%] | inhibition at 10 µM [29] [%] | other results
1 | CCn1cc(C(=O)O)c(=O)c2cc(F)c(N3CCN(CC(=O)Nc4ccc(OC)cc4)C(C)C3)c(F)c21 (stereo not shown) [Compound 5c, 1-Ethyl-6,8-difluoro-7-(4-(2-((4-methoxyphenyl)amino)-2-oxoethyl)-3-methylpiperazin-1-yl)-4-oxo-1,4-dihydroquinoline-3-carboxylic acid] | 196 to 198 | 98.8 | 14 | 3.75 | 12.6 | 12.8 | 5.28 | 11.4 | 8.23 | 4.78 | 19.1 | 13.7 | inhibition at 10 µM [2]: 0.84%; inhibition at 10 µM [3]: 6.19%; inhibition at 10 µM [4]: 8.21%; inhibition at 10 µM [5]: 4.07%; inhibition at 10 µM [10]: 8.53%; inhibition at 10 µM [13]: 6.89%; inhibition at 10 µM [15]: 5.79%; inhibition at 10 µM [16]: 2.85%; inhibition at 10 µM [17]: 3.21%; inhibition at 10 µM [18]: 0.32%; inhibition at 10 µM [19]: 24.1%; inhibition at 10 µM [22]: 2%; inhibition at 10 µM [23]: 0.25%; inhibition at 10 µM [24]: 5.75%; inhibition at 10 µM [25]: 1.91%; inhibition at 10 µM [26]: 0.45%; inhibition at 10 µM [27]: 3.31%; inhibition at 10 µM [28]: 3.62%; inhibition at 10 µM [30]: 3.82%
2 | CCn1cc(C(=O)O)c(=O)c2cc(F)c(N3CCN(C=O)C(C)C3)c(F)c21 (stereo not shown) [Compound 6, 1-Ethyl-6,8-difluoro-7-(4-formyl-3-methylpiperazin-1-yl)-4-oxo-1,4-dihydroquinoline-3-carboxylic acid] | 289 to 291 | 103 | 6.49 | 2.93 | 7.29 | 5.57 | 2.38 | 4.66 | 2.98 | 1.77 | 12.9 | 0.72 | inhibition at 10 µM [31]: 27.8%; inhibition at 10 µM [32]: 4.91%; inhibition at 10 µM [33]: 3.48%
